Reference: patent US6610741B1, “Skin cosmetic compositions containing a weak carboxylic acid and random copolymers of ethylene oxides and propylene oxides” (Unilever Home & Personal Care USA division of Conopco, Inc., priority 1999, dated 2003)

Test system: contralateral nasolabial folds of subjects sensitive to glycolic acid
Assay: in-vivo sting test (sting/burn propensity and forced choice)
Design: species or system human
Settings: additive in Base Formula A + 8% glycolic acid, pH 3.8; result in words
From the text: Procedure for in-vivo sting test: This was a randomized, double blind study where each subject evaluated one test formulation and a control formulation or two test formulations on contralateral nasolabial folds. […] A maximum of 20 qualified subjects (minimum of 15) were utilized in each subsequent test. One paired comparison was made on each testing day, with a minimum of 3 days between sting testing throughout the study. Subjects underwent a 15 second Ivory soap wash regime immediately prior to product testing for enhancing sting response. […] Study personnel then applied one test formulation and one control or test formulation simultaneously to the appropriate left/right test site, and gently but thoroughly rubbed in. Subjects compared the stinging potential of the two formulations, over a 7.5 minute period using a self-assessment questionnaire.
Sting/Burn Propensity: The degree of stinging/burning felt on the left and right inner cheek and crease of the nose was evaluated using the following scale at the times indicated in Tables below:
0-no stinging/burning; 1-very slight stinging/burning; 2-slight stinging/burning; 3- moderate stinging/burning; 4-moderately high stinging/burning; 5-high stinging/burning; 6-extreme stinging/burning. […]
Statistical significance was determined at p≦0.1.

C[C@]12CCC(=O)C=C1CC[C@@H]1[C@@H]2[C@@H](O)C[C@@]2(C)[C@H]1CC[C@]2(O)C(=O)CO [hydrocortisone]
effect of additive on sting of Base Formula A containing 8% glycolic acid: neither hydrocortisone nor arabinogalactan reduced the sting
